In patent publication US5648259A, “Polypeptides having NMDA receptor activity, nucleic acids encoding those polypeptides and applications” (priority 1992, dated 1997):

Columns and labels:
[1] = system: GR33 polypeptide SEQ ID No. 2; experiment: Pharmacological and electrophysiological study of Xenopus eggs microinjected with GR33 mRNA (induced current under applied potential); format: cell-based, rat; settings: for effect on response induced by NMDA (200 μM): antagonist applied (200 μM) simultaneously with NMDA; for effect of competitive antagonist on responses to NMDA: concentration not given
Procedure: The cDNA fragment isolated in Example 2 was transcribed into mRNA and microinjected into Xenopus eggs. The microinjected eggs thereby obtained were then tested for their capacity to bind certain labelled NMDA receptor ligands, or for their behaviour with respect to modulators of NMDA receptors.
The plasmid containing the 1.7-kb cDNA coding for the GR33 polypeptide SEQ ID No. 2 was linearized in the presence of the enzyme SmaI, and then subjected to a transcription step in the presence of phage T7 RNA polymerase. Transcription was performed using the Stratagene Kit according to the manufacturer's recommendations.
The synthetic RNA obtained above, dissolved in sterile water, was used (5 ng) for injection into mature Xenopus eggs (stages V and VI) in a volume of 50 nl. The eggs were then maintained for 3 days at 19° C. in multi well plates in a Barth medium supplemented with antibiotics (Miledi and Sumikawa, Biomed. Res. 3 (1982) 390).
The eggs thereby obtained were then tested for the presence of functional NMDA receptors at their surface. For this purpose, the eggs were transferred to modified OR-2 medium lacking magnesium, of composition: 88 mM NaCl, 2.5 mM KCl, 1 mM CaCl2, 10 mM HEPES buffer, pH 7.4 adjusted with sodium hydroxide. The different drugs (ligands or modulators) were applied by perfusion (10 ml/min) for 10-30 seconds under an applied potential difference of -80 or -90 mV.

[2] = system: GR33 polypeptide SEQ ID No. 2; experiment: as above; format: cell-based, rat
known NMDA receptors = settings: cited from earlier work

N[C@H](CCCP(=O)(O)O)C(=O)O [AP5, D-2-amino-5-phosphonovaleric acid]
effect on response induced by NMDA (200 μM) [1]: abolished | effect of competitive antagonist on responses to NMDA [1]: reduced

N[C@@H](Cn1oc(=O)[nH]c1=O)C(=O)O [quisqualate]
induction of inward current ([1]; quisqualate 50 μM): little or no effect

[Ca+2] [calcium]
effect of calcium on GR33 activity [1]: inhibitory effect | effect on response induced by NMDA (200 μM) ([2]; external calcium concentration increased to 2.5 mM): decreased | effect on activity of known NMDA receptors (known NMDA receptors): stimulates

C=C(C)[C@H]1CN[C@H](C(=O)O)[C@H]1CC(=O)O [kainate]
induction of inward current ([1]; kainate): little or no effect

N[C@@H](CCC(=O)O)C(=O)O [glutamate, Glutamic acid]
strength of response among excitatory amino acids tested (glutamate, kainate, quisqualate, homocysteate) [1]: strongest responses | induction of inward current ([1]; glutamate 0.1-1 mM, perfusion 10-30 s, -80 or -90 mV): induces an inward current

[Mg+2] [magnesium]
inhibitory effect of magnesium on GR33 activity [1]: 30-70% | effect on response induced by NMDA (200 μM) ([2]; magnesium 200 μM added to the medium): decreased | effect on activity of known NMDA receptors (known NMDA receptors): completely inhibits

CN[C@H](CC(=O)O)C(=O)O [NMDA, N-methyl-D-aspartate]
EC50 ([1]; GR33 expressed in Xenopus eggs, read-out: NMDA concentration giving 50% of the maximum response (ED50)): ~10 µM

N[C@H](CCCCCP(=O)(O)O)C(=O)O [AP7, D-2-amino-7-phosphonoheptanoic acid]
effect on response induced by NMDA (200 μM) [1]: abolished | effect of competitive antagonist on responses to NMDA [1]: reduced
